Assay results taken from patent publication US11241013B2, “Benzimidazole compounds as agricultural chemicals” (REDAG CROP PROTECTION LTD, priority 2017, dated 2022).

What was measured:
[1] = tested on: Phytophthora cactorum; assay: 96 well plate test; format: cell-based; conditions: 96 well plate assay, agar amended to 20, 2, 0.2 and 0.02 ppm, assessed after 2 to 3 days, read-out: EC50 Phytophthora spp. (Phytophthora cactorum)
Method: Compounds were screened in 96 well plates with 10 compounds per plate. Each compound was screened using agar amended to 20, 2, 0.2 and 0.02 ppm, with proline at 50 and 10 ppm and 0.2% DMSO used as controls. Each test concentration and standard was replicated twice on a plate. Compounds were screened against Phytophthora cactorum. The agar used in the test is a 1% potato dextrose agar. 1000 spores/mL agar were added to the appropriate agar. A ×10 stock solution in 2% DMSO was produced for each dose i.e. 200, 20, 2 and 0.2 ppm, and 10 μl of this added to the appropriate wells on the plate. An equivalent amount of 2% DMSO and proline stock at 500 and 100 ppm were added for the controls. To each well 90 μl of the appropriate agar spore suspension was added to give the required final well concentrations. Plates were incubated at room temperature (18° C.) and assessed after 2 to 3 days. The amount of pathogen growth in each well was compared to the DMSO controls and an EC50 concentration was calculated. The results are provided in Table 1 in which H represents no control detected at 20 ppm, G represents no control detected at 2 ppm (where the highest test concentration in the assay was 2 ppm), F represents an EC50 of ≥20 ppm, E represents an EC50 of less than 20 ppm.

[2] = tested on: Pythium ultimum; assay: Amended agar assay; format: cell-based; design: key to % control Pythium ultimum 2 ppm / % control Pythium ultimum 20 ppm: D: no control detected at this concentration; C: up to 50% control; B: from 50 to 99% control; A: a control of greater than 99%, i.e. no detectable colony growth; conditions: amended PDA agar, % reduction in colony growth vs control plate, 18° C.; for inhibition of growth at 2 ppm / inhibition of growth at 20 ppm: Globisporangium ultimum
Method: Testing was carried out on potato dextrose agar (PDA) amended with each compound at a test concentration of typically 20 ppm or 2 ppm. Amended agar was poured into three replicate 9 cm petri dishes. Each replicate dish was inoculated in the centre with a 5 mm agar plug taken from the leading edge of a culture aged between 2 and 7 days old; the age of the culture was dependant on the growth rate of the pathogen being tested. The test pathogens were Pythium ultimum and Phytophthora cinnamomi. Plates were incubated at 18° C. and the diameter of each colony measured before growth on the fastest growing plate reached the plate edge. This varied between 2 and 7 days depending on the growth rate of test pathogens. The % reduction in colony growth compared to the control plate was calculated for each pathogen. The results are provided in Table 1, in which D represents no control detected at this concentration; C represents up to 50% control; B from 50 to 99% control; and A represents a control of greater than 99%, i.e. no detectable colony growth.
Alternatively, or in addition, the same assay was conducted at descending test concentrations with 5-fold dilutions typically down to 0.032 ppm though sometimes as low as 0.00026 ppm, and an EC50 (the concentration at which 50% control would be achieved) was determined. The results are provided in Table 1 in which G represents no control detected at 20 ppm, F represents an EC50 of ≥20 ppm and E represents an EC50 of less than 20 ppm.

| Structure (SMILES) | EC50 [1] | inhibition of growth at 2 ppm ([2]; 2 ppm) | inhibition of growth at 20 ppm [2] | % control Pythium ultimum 2 ppm ([2]; 2 ppm) |
| --- | --- | --- | --- | --- |
| Cc1cccnc1COc1nc2ccccc2n1-c1nnnn1C [Example 3] | ≥ 20 µg/mL | 50 to 99% | > 99% | – |
| COc1ccnc(COc2nc3ccccc3n2-c2nnnn2C)c1 [Example 4] | < 20 µg/mL | > 99% | > 99% | – |
| Cc1ccc(COc2nc3ccccc3n2-c2nnnn2C)nc1 [Example 6] | ≥ 20 µg/mL | > 99% | > 99% | – |
| Cn1nnnc1-n1c(OCc2ccncn2)nc2ccccc21 [Example 7] | < 20 µg/mL | > 99% | – | – |
| Clc1cncnc1-n1c(OCc2ccccn2)nc2ccccc21 [Example 8] | ≥ 20 µg/mL | 50 to 99% | – | – |
| COCCCOc1ccnc(COc2nc3ccccc3n2-c2ncncc2Cl)c1C [Example 10] | ≥ 20 µg/mL | 50 to 99% | – | – |
| Cc1ccnc(COc2nc3ccccc3n2-c2nnnn2C)c1 [Example 11] | < 20 µg/mL | > 99% | > 99% | – |
| COc1c(C)cnc(COc2nc3ccccc3n2-c2nnnn2C)c1C [Example 12] | < 20 µg/mL | > 99% | > 99% | – |
| COc1ccnc(COc2nc3ccccc3n2-c2nnnn2C)c1OC [Example 13] | < 20 µg/mL | 50 to 99% | > 99% | – |
| Cc1c(OCC(F)(F)F)ccnc1COc1nc2ccccc2n1-c1nnnn1C [Example 14] | < 20 µg/mL | > 99% | > 99% | – |
| Cn1nnnc1-n1c(OCc2nccs2)nc2ccccc21 [Example 16] | ≥ 20 µg/mL | < 50% | – | – |
| Cn1nnnc1-n1c(OCc2cccc(Br)n2)nc2ccccc21 [Example 17, 2-((6-bromopyridin-2-yl)methoxy)-1-(1-methyl-1H-tetrazol-5-yl)-1H-benzo[d]imidazole] | ≥ 20 µg/mL | < 50% | – | – |
| COc1ccnc(COc2nc3ccccc3n2-c2ncncc2Cl)c1 [Example 22] | ≥ 20 µg/mL | 50 to 99% | – | – |
| Clc1cncnc1-n1c(OCc2nccs2)nc2ccccc21 [Example 23] | ≥ 20 µg/mL | 50 to 99% | – | – |
| COc1c(C)cnc(COc2nc3ccccc3n2-c2ncncc2Cl)c1C [Example 24] | < 20 µg/mL | 50 to 99% | – | – |
| Cn1nnnc1-n1c(OCc2ccccn2)nc2c(Cl)cccc21 [Example 30] | < 20 µg/mL | > 99% | – | – |
| Cn1nnnc1-n1c(OCc2cccc(NCc3ccccc3)n2)nc2ccccc21 [Example 35, N-Benzyl-6-(((1-(1-methyl-1H-tetrazol-5-yl)-1H-benzo[d]imidazol-2-yl)oxy)methyl)pyridin-2-amine] | < 20 µg/mL | > 99% | – | – |
| CCNc1cccc(COc2nc3ccccc3n2-c2nnnn2C)n1 [Example 36] | < 20 µg/mL | > 99% | – | – |
| CC(C)CCNc1cccc(COc2nc3ccccc3n2-c2nnnn2C)n1 [Example 37] | < 20 µg/mL | > 99% | – | – |
| Cn1nnnc1-n1c(OCc2cccc(NCCCc3ccccc3)n2)nc2ccccc21 [Example 38] | < 20 µg/mL | > 99% | – | – |
| Cn1nnnc1-n1c(OCc2cccc(NCCc3ccccc3)n2)nc2ccccc21 [Example 39] | < 20 µg/mL | > 99% | – | – |
| Cn1nnnc1-n1c(OCc2cccc(NCc3ccccn3)n2)nc2ccccc21 [Example 40] | < 20 µg/mL | > 99% | – | – |
| CCCNc1cccc(COc2nc3ccccc3n2-c2nnnn2C)n1 [Example 42] | < 20 µg/mL | > 99% | – | – |
| CCCCNc1cccc(COc2nc3ccccc3n2-c2nnnn2C)n1 [Example 43] | < 20 µg/mL | > 99% | – | – |
| Cn1nnnc1-n1c(OCc2cccc(NCc3ccco3)n2)nc2ccccc21 [Example 44] | < 20 µg/mL | > 99% | – | – |
| Cn1ccc(CNc2cccc(COc3nc4ccccc4n3-c3nnnn3C)n2)n1 [Example 45] | < 20 µg/mL | > 99% | – | – |

| Structure (SMILES) | EC50 [1] | inhibition of growth at 2 ppm ([2]; 2 ppm) | inhibition of growth at 20 ppm [2] | % control Pythium ultimum 2 ppm ([2]; 2 ppm) |
| --- | --- | --- | --- | --- |
| Cn1nnnc1-n1c(OCc2cccc(NCC3CC3)n2)nc2ccccc21 [Example 47] | < 20 µg/mL | > 99% | – | – |
| CNc1cccc(COc2nc3ccccc3n2-c2nnnn2C)n1 [Example 48, N-Methyl-6-(((1-(1-methyl-1H-tetrazol-5-yl)-1H-benzo[d]imidazol-2-yl)oxy)methyl)pyridin-2-amine] | < 20 µg/mL | > 99% | – | – |
| CC(C)Nc1cccc(COc2nc3ccccc3n2-c2nnnn2C)n1 [Example 50, N-Isopropyl-6-(((1-(1-methyl-1H-tetrazol-5-yl)-1H-benzo[d]imidazol-2-yl)oxy)methyl)pyridin-2-amine] | < 20 µg/mL | > 99% | – | – |
| CC(C)CCCNc1cccc(COc2nc3ccccc3n2-c2nnnn2C)n1 [Example 51] | < 20 µg/mL | > 99% | – | – |
| CSc1ccnc(COc2nc3ccccc3n2-c2nnnn2C)c1 [Example 55] | < 20 µg/mL | > 99% | – | – |
| COc1ccc(COc2nc3ccccc3n2-c2nnnn2C)nc1 [Example 56] | ≥ 20 µg/mL | < 50% | – | – |
| Cn1nnnc1-n1c(OCc2cccc(N)n2)nc2c(Cl)cccc21 [Example 59] | < 20 µg/mL | > 99% | – | – |
| Cc1c(OC(F)(F)C(F)(F)F)ccnc1COc1nc2c(Cl)cccc2n1-c1nnnn1C [Example 60] | < 20 µg/mL | > 99% | – | – |
| COc1ccnc(COc2nc3c(Cl)cccc3n2-c2nnnn2C)c1 [Example 61] | < 20 µg/mL | > 99% | – | – |
| COCCCOc1ccnc(COc2nc3c(Cl)cccc3n2-c2nnnn2C)c1C [Example 62] | < 20 µg/mL | > 99% | – | – |
| CC(C)CCCNc1cccc(COc2nc3c(Cl)cccc3n2-c2nnnn2C)n1 [Example 63] | < 20 µg/mL | > 99% | – | – |
| Cn1nnnc1-n1c(OCc2nc3ccccc3n2C)nc2ccccc21 [Example 64] | < 20 µg/mL | > 99% | – | – |
| Cn1nnnc1-n1c(OCc2ccc3ccccc3n2)nc2ccccc21 [Example 65] | ≥ 20 µg/mL | 50 to 99% | – | – |
| Cn1nnnc1-n1c(OCc2nc3ccccc3n2C)nc2c(Cl)cccc21 [Example 66] | < 20 µg/mL | > 99% | – | – |
| Cn1nnnc1-n1c(OCc2cc([N+](=O)[O-])ccn2)nc2c(Cl)cccc21 [Example 69] | ≥ 20 µg/mL | 50 to 99% | – | – |
| Cn1nnnc1-n1c(OCc2nc3ccccc3s2)nc2c(Cl)cccc21 [Example 70] | < 20 µg/mL | > 99% | – | – |
| Cn1nnnc1-n1c(OCc2cccc(CO)n2)nc2c(Cl)cccc21 [Example 71] | ≥ 20 µg/mL | – | – | D |
| Cn1nnnc1-n1c(OCc2cccc(NCCc3ccccc3)n2)nc2c(Cl)cccc21 [Example 73] | < 20 µg/mL | > 99% | – | – |
| Cn1nnnc1-n1c(OCc2cccc(NCCOc3ccccc3)n2)nc2c(Cl)cccc21 [Example 74] | < 20 µg/mL | > 99% | – | – |
| Cn1nnnc1-n1c(OCc2cc(N3CCOCC3)ccn2)nc2c(Cl)cccc21 [Example 75] | ≥ 20 µg/mL | 50 to 99% | – | – |
| CCOc1ccnc(COc2nc3ccccc3n2-c2nnnn2C)c1 [Example 76] | ≥ 20 µg/mL | > 99% | – | – |
| CCCOc1ccnc(COc2nc3ccccc3n2-c2nnnn2C)c1 [Example 77] | < 20 µg/mL | > 99% | – | – |
| COc1cc(F)cc2c1nc(OCc1ccccn1)n2-c1nnnn1C [Example 78] | < 20 µg/mL | 50 to 99% | – | – |
| Cn1nnnc1-n1c(OCc2cccc(NCC3CCCC3)n2)nc2ccccc21 [Example 80] | < 20 µg/mL | > 99% | – | – |
| Cn1nnnc1-n1c(OCc2cccc(NC3CCCC3)n2)nc2ccccc21 [Example 81] | < 20 µg/mL | > 99% | – | – |
